Assay results: ChEMBL document CHEMBL5523671, “ω-(5-Phenyl-2H-tetrazol-2-yl)alkyl-substituted glycine amides and related compounds as inhibitors of the amine oxidase vascular adhesion protein-1 (VAP-1)” (Bioorg Med Chem, 2024)
Active and inactive are the calls of the source. No cut-off for these calls is given here.

Experiments:
[1] = target: T1, Amine oxidase [copper-containing] 3 (Bos taurus) (UniProt Q9TTK6); assay: Inhibition of bovine plasma VAP-1 using 6-(5-Pheny1-2H-tetrazol-2-yl)hexan-1-amine as substrate at 10 uM preincubated with enzyme for 15 mins followed by substrate addition measured after 30 mins by UV-HPLC analysis relative to control; type: cell-free; conditions: time 45.0 min
T1 sequence (whole entry): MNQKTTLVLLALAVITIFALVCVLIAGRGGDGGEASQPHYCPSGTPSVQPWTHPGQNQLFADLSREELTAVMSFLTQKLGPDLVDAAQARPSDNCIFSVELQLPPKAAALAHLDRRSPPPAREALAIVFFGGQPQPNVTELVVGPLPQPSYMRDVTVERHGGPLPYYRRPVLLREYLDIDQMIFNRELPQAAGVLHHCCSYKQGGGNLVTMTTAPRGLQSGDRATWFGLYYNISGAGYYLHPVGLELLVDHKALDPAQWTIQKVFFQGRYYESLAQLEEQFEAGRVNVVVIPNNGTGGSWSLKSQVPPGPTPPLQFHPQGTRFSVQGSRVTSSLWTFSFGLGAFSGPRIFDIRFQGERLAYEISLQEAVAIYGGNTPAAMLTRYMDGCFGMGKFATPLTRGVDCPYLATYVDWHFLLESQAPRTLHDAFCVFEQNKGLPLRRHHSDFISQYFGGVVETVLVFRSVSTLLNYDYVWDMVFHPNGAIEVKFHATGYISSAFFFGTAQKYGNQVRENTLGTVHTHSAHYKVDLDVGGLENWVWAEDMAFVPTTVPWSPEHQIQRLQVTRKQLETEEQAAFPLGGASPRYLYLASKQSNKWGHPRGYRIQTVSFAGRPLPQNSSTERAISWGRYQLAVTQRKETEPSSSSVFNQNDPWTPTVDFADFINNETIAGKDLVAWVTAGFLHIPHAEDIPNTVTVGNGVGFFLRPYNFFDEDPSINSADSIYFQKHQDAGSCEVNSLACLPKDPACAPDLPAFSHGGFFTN

[2] = target: T1, Amine oxidase [copper-containing] 3 (Bos taurus); assay: Inhibition of bovine plasma VAP-1 using 6-(5-Pheny1-2H-tetrazol-2-yl)hexan-1-amine as substrate at 10 uM measured after 30 mins by UV-HPLC analysis relative to control; type: cell-free
[3] = target: T2, Amine oxidase [copper-containing] 3 (Bos taurus, UniProt Q9TTK6); assay: Inhibition of bovine plasma VAP-1 using 6-(5-Pheny1-2H-tetrazol-2-yl)hexan-1-amine as substrate preincubated with enzyme for 15 mins followed by substrate addition measured after 30 mins by UV-HPLC analysis; type: cell-free
T2 sequence (Q9TTK6 whole entry): T1 sequence (whole entry)

[4] = target: T2, Amine oxidase [copper-containing] 3; assay: Inhibition of bovine plasma VAP-1 using 6-(5-Pheny1-2H-tetrazol-2-yl)hexan-1-amine as substrate measured after 30 mins by UV-HPLC analysis; type: cell-free
[5] = target: T3, VAP-1 (amine oxidase [copper-containing] 3) (Bos taurus, UniProt Q9TTK6); assay: Stability of compound assessed as bovine plasma VAP-1 mediated drug degradation by measuring parent compound remaining at 10 uM incubated for 15 mins by HPLC-MS analysis; type: ADME, cell-free; conditions: cattle, bovine plasma VAP-1 (amine oxidase [copper-containing] 3), read-out: Stability
T3 sequence (Q9TTK6 whole entry): T1 sequence (whole entry)

[6] = target: T3, VAP-1 (amine oxidase [copper-containing] 3); assay: Stability of compound assessed as bovine plasma VAP-1 mediated drug degradation by measuring parent compound remaining at 10 uM incubated for 30 mins by HPLC-MS analysis; type: ADME, cell-free; conditions: cattle, bovine plasma VAP-1 (amine oxidase [copper-containing] 3), read-out: Stability
[7] = target: T3, VAP-1 (amine oxidase [copper-containing] 3); assay: Stability of compound assessed as bovine plasma VAP-1 mediated drug degradation by measuring parent compound remaining at 10 uM incubated for 60 mins by HPLC-MS analysis; type: ADME, cell-free; conditions: cattle, bovine plasma VAP-1 (amine oxidase [copper-containing] 3), read-out: Stability
[8] = target: T3, VAP-1 (amine oxidase [copper-containing] 3); assay: Stability of compound assessed as bovine plasma VAP-1 mediated drug degradation by measuring parent compound remaining at 10 uM incubated for 120 mins by HPLC-MS analysis; type: ADME, cell-free; conditions: cattle, bovine plasma VAP-1 (amine oxidase [copper-containing] 3), read-out: Stability
[9] = target: T3, VAP-1 (amine oxidase [copper-containing] 3); assay: Stability of compound assessed as bovine plasma VAP-1 mediated drug degradation by measuring parent compound remaining at 1 uM incubated for 15 mins by HPLC-MS analysis; type: ADME, cell-free; conditions: cattle, bovine plasma VAP-1 (amine oxidase [copper-containing] 3), read-out: Stability
[10] = target: T3, VAP-1 (amine oxidase [copper-containing] 3); assay: Stability of compound assessed as bovine plasma VAP-1 mediated drug degradation by measuring parent compound remaining at 1 uM incubated for 30 mins by HPLC-MS analysis; type: ADME, cell-free; conditions: cattle, bovine plasma VAP-1 (amine oxidase [copper-containing] 3), read-out: Stability
[11] = target: T3, VAP-1 (amine oxidase [copper-containing] 3); assay: Stability of compound assessed as bovine plasma VAP-1 mediated drug degradation by measuring parent compound remaining at 1 uM incubated for 60 mins by HPLC-MS analysis; type: ADME, cell-free; conditions: cattle, bovine plasma VAP-1 (amine oxidase [copper-containing] 3), read-out: Stability
[12] = target: T3, VAP-1 (amine oxidase [copper-containing] 3); assay: Stability of compound assessed as bovine plasma VAP-1 mediated drug degradation by measuring parent compound remaining at 1 uM incubated for 120 mins by HPLC-MS analysis; type: ADME, cell-free; conditions: cattle, bovine plasma VAP-1 (amine oxidase [copper-containing] 3), read-out: Stability
[13] = target: T4, Amine oxidase [copper-containing] 3 (Homo sapiens, UniProt Q16853); assay: Inhibition of human plasma VAP-1 using 6-(5-Pheny1-2H-tetrazol-2-yl)hexan-1-amine as substrate preincubated with enzyme for 15 mins followed by substrate addition measured after 120 mins by UV-HPLC analysis; type: cell-free
T4 sequence (Q16853 whole entry): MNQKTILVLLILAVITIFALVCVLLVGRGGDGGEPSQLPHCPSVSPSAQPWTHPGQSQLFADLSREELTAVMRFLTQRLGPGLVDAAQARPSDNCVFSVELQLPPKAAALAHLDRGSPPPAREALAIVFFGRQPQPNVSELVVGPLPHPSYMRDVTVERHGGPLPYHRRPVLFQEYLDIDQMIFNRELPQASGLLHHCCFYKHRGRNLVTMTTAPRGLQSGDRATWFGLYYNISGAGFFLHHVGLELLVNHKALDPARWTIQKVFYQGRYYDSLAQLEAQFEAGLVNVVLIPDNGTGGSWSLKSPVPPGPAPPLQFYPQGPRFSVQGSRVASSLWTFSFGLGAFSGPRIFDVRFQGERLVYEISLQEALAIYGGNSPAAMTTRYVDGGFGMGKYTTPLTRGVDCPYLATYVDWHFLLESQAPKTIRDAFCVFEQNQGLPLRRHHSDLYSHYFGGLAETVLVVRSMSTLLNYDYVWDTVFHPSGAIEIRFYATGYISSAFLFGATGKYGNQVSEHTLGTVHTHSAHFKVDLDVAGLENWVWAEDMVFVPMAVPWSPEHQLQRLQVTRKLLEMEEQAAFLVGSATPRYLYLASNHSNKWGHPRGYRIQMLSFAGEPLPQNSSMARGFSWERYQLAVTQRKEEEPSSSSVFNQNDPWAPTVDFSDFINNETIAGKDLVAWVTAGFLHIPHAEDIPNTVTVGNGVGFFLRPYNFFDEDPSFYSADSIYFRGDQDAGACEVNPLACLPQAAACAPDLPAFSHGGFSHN

[14] = Selectivity index, ratio of IC50 for human plasma VAP-1 to IC50 for bovine plasma VAP-1
[15] = Selectivity index, ratio of IC50 for porcine kidney DAO to IC50 for bovine plasma VAP-1
[16] = target: T2, Amine oxidase [copper-containing] 3; assay: Stability of compound assessed as bovine plasma VAP-1 mediated drug degradation by measuring formation of aldehyde metabolite at 1 to 10 uM incubated for 60 to 120 mins by HPLC-MS analysis; type: ADME, cell-free; conditions: cattle, dose lower 1 µM, time lower 60 min, dose upper 10 µM, time upper 120 min

Row | Structure (SMILES) | inhibition [1] | inhibition [2] | IC50 [3] [µM] | IC50 [4] [µM] | also measured
1 | NCC(=O)NCCCCCCn1nnc(-c2ccc(C(=O)O)cc2)n1 | inactive | inactive | – | – | –
2 | NCC(=O)NCCCCCCn1nnc(-c2ccncc2)n1 | – | – | 5.4 | 6.2 | –
3 | NCC(=O)NCCn1nnc(-c2ccccc2)n1 | 31% | inactive | > 10 | – | –
4 | NCC(=O)NCCCCCCn1cc(-c2ccccc2)cn1 | – | – | 7.9 | 6.9 | –
5 | NCC(=O)NCCCCCCn1nnc(-c2cccs2)n1 | – | – | 7.7 | 5.6 | –
6 | NCC(=O)NCCCCCCn1nnc(-c2ccc(C(N)=O)cc2)n1 | – | – | 5.2 | 4 | –
7 | NCC(=O)NCCCCCCCCn1nnc(-c2ccccc2)n1 | – | – | 4.8 | 3.1 | –
8 | CC(C)(C)NC(=O)c1ccc(OC/C(=C/F)CN)cc1 | – | – | 0.027 | 1 | remaining at 0.25 h, 10 µM [5]: > 95%; remaining at 0.5 h, 10 µM [6]: > 95%; remaining at 1 h, 10 µM [7]: > 95%; remaining at 2 h, 10 µM [8]: > 95%; remaining at 0.25 h, 1 µM [9]: > 95%; remaining at 0.5 h, 1 µM [10]: > 95%; remaining at 1 h, 1 µM [11]: > 95%; remaining at 2 h, 1 µM [12]: 90%
9 | NCC(=O)NC1CCC(CCn2nnc(-c3ccccc3)n2)CC1 (stereo not drawn) | inactive | inactive | – | – | –
10 | NCC(=O)NCCCCCCn1ccc(-c2ccccc2)n1 | 37% | 42% | > 10 | > 10 | –
11 | COc1ccc(-c2nnn(CCCCCCNC(=O)CN)n2)cc1 | – | – | 6.3 | 6.2 | –
12 | CN(Cc1cccc(Cn2nnc(-c3ccccc3)n2)c1)C(=O)CN | 49% | 43% | > 10 | > 10 | remaining at 0.25 h, 10 µM [5]: 95%; remaining at 0.5 h, 10 µM [6]: 85%; remaining at 1 h, 10 µM [7]: 65%; remaining at 2 h, 10 µM [8]: 45%; IC50 [13]: 20 µM; Ratio IC50 [14]: 2
13 | NCC(=O)NCCCCCCn1nnc(-c2ccccn2)n1 | 49% | 40% | > 10 | > 10 | –
14 | Cl.N#Cc1ccc(-c2nnn(Cc3cccc(CNC(=O)CN)c3)n2)cc1 | – | – | – | – | remaining at 0.25 h, 10 µM [5]: 93%; remaining at 0.5 h, 10 µM [6]: 95%; remaining at 2 h, 10 µM [8]: 81%; remaining at 0.25 h, 1 µM [9]: 74%; remaining at 0.5 h, 1 µM [10]: 49%; remaining at 1 h, 1 µM [11]: < 5%; remaining at 2 h, 1 µM [12]: < 5%; Ratio IC50 [14]: 2; Ratio IC50 [15]: 50; Stability [16]: Stable
15 | Cl.NCC(=O)NCc1cccc(Cn2nnc(-c3ccccc3)n2)c1 | – | – | 0.16 | 0.37 | remaining at 0.25 h, 10 µM [5]: > 95%; remaining at 0.5 h, 10 µM [6]: > 95%; remaining at 1 h, 10 µM [7]: 93%; remaining at 2 h, 10 µM [8]: 84%; remaining at 0.25 h, 1 µM [9]: 73%; remaining at 0.5 h, 1 µM [10]: 47%; remaining at 1 h, 1 µM [11]: < 5%; remaining at 2 h, 1 µM [12]: < 5%; IC50 [13]: 2.1 µM; Ratio IC50 [14]: 2; Ratio IC50 [15]: 50; Stability [16]: Stable
16 | NCC(=O)NCCCCCCn1nnc(-c2ccsc2)n1 | – | – | 6.8 | 6.3 | –
